Experimental data published in patent publication US10793568B2, “Hormone receptor modulators for treating metabolic conditions and disorders” (ARDELYX, INC., priority 2016, dated 2020).

Experiments:
[1] = molecular target: ligand binding domain of human FXR (Homo sapiens (Human), UniProt Q96RI1); test: FXR ligand binding assay (LanthaScreen TR-FRET, SRC2-2 peptide recruitment); details: for Emax: read-out: % Efficacy
[2] = molecular target: human Farnesoid X receptor ligand-binding domain/Gal4 DNA binding domain chimera (Homo sapiens (Human), UniProt Q96RI1); test: Cell-based assay of FXR activation (FXR-UAS-bla HEK 293T beta-lactamase reporter); details: cellular FXR beta-lactamase reporter assay; for Emax: HEK-293T, read-out: % Efficacy
Chain of human Farnesoid X receptor ligand-binding domain/Gal4 DNA binding domain chimera (Q96RI1 262-486, change not shown): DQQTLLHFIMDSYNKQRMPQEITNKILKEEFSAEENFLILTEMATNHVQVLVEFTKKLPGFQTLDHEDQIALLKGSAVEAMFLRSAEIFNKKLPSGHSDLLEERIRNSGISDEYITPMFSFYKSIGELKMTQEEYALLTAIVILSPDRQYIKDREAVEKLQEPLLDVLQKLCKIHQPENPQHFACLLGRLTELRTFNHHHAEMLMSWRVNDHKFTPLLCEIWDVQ
Chain of human Farnesoid X receptor ligand-binding domain/Gal4 DNA binding domain chimera (P04386 1-147 partner): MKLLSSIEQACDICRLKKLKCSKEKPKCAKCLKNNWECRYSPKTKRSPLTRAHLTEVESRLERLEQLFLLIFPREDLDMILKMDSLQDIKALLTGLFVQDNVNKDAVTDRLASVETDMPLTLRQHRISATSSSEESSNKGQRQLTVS
Outline: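 HEK 293T cells stably expressing a Gal4-fused human FXR LBD and a UAS-driven beta-lactamase reporter were incubated with serially diluted compounds for 16 h at 37 °C in phenol red-free DMEM with 2% charcoal-stripped FBS. CCF4 FRET read-out: excitation 409 nm, emission 447 nm. pEC50 comes from a 3-parameter logistic fit, and efficacy is given as % of GW4064.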

[3] = -log EC50, concentration required to produce 50% activation
[4] = extent of activation relative to GW4064
[5] = FXR-UAS-bla HEK 293T cells, 16 h, pEC50 = -log EC50

Chain of ligand binding domain of human FXR (Q96RI1 262-486): as the sequence (Q96RI1 262-486, change not shown) above

## O=C(NS(=O)(=O)C1CC1)c1ccc(N2C[C@@H]3C[C@H]2C[C@H]3OC(=O)c2c(-c3c(Cl)cccc3Cl)noc2C2(F)CC2)c(F)c1 [Compound I-199, (1S,4S,5R)-2-(4-((cyclopropylsulfonyl)carbamoyl)-2-fluorophenyl)-2-azabicyclo[2.2.1]heptan-5-yl 3-(2,6-dichlorophenyl)-5-(1-fluorocyclopropyl)isoxazole-4-carboxylate]
[1]; [3]
  pEC50: 7.4
[1]; [4]
  Emax: 146%
[2]; [4]
  Emax: 110%
[2]; [5]
  EC50: 10 nM

## CCCS(=O)(=O)NC(=O)c1ccc(N2C[C@@H]3C[C@H]2C[C@H]3OCc2c(-c3ccccc3C(F)(F)F)noc2C2CC2)c(F)c1 [Compound I-200, 4-((1S,4S,5R)-5-((5-cyclopropyl-3-(2-(trifluoromethyl)phenyl)isoxazol-4-yl)methoxy)-2-azabicyclo[2.2.1]heptan-2-yl)-3-fluoro-N-(propylsulfonyl)benzamide]
[1]; [3]
  pEC50: 8.6
[1]; [4]
  Emax: 215%
[2]; [4]
  Emax: 110%
[2]; [5]
  EC50: 0.251 nM

## O=C(NS(=O)(=O)C1CC1)c1ccc(N2C[C@@H]3C[C@H]2C[C@H]3OCc2c(-c3ccccc3C(F)(F)F)noc2C2CC2)c(F)c1 [Compound I-202, 4-((1S,4S,5R)-5-((5-cyclopropyl-3-(2-(trifluoromethyl)phenyl)isoxazol-4-yl)methoxy)-2-azabicyclo[2.2.1]heptan-2-yl)-N-(cyclopropylsulfonyl)-3-fluorobenzamide]
[1]; [3]
  pEC50: 8.5
[1]; [4]
  % Efficacy: 215%
[2]; [5]
  pEC50: 9.4
[2]; [4]
  % Efficacy: 114%

## Cc1cccc(Cl)c1-c1noc(C2CC2)c1CO[C@@H]1C[C@@H]2C[C@H]1CN2c1ccc(C(=O)NS(=O)(=O)C2CCOCC2)cc1 [Compound I-203, 4-((1S,4S,5R)-5-((3-(2-chloro-6-methylphenyl)-5-cyclopropylisoxazol-4-yl)methoxy)-2-azabicyclo[2.2.1]heptan-2-yl)-N-((tetrahydro-2H-pyran-4-yl)sulfonyl)benzamide]
[1]; [3]
  pEC50: 9
[1]; [4]
  Emax: 157%
[2]; [4]
  Emax: 102%
[2]; [5]
  EC50: 0.158 nM

## CCCS(=O)(=O)NC(=O)c1ccc(N2C[C@@H]3C[C@H]2C[C@H]3OCc2c(-c3c(Cl)cccc3Cl)noc2C2CC2)nc1 [Compound I-204, 6-((1S,4S,5R)-5-((5-cyclopropyl-3-(2,6-dichlorophenyl)isoxazol-4-yl)methoxy)-2-azabicyclo[2.2.1]heptan-2-yl)-N-(propylsulfonyl)nicotinamide]
[1]; [3]
  pEC50: 8.4
[1]; [4]
  Emax: 136%
[2]; [4]
  Emax: 104%
[2]; [5]
  EC50: 2.51 nM

## O=C(NS(=O)(=O)C1CC1)c1ccc(N2C[C@@H]3C[C@H]2C[C@H]3OCc2c(-c3c(Cl)cccc3Cl)noc2C2CC2)nc1 [Compound I-205, 6-((1S,4S,5R)-5-((5-cyclopropyl-3-(2,6-dichlorophenyl)isoxazol-4-yl)methoxy)-2-azabicyclo[2.2.1]heptan-2-yl)-N-(cyclopropylsulfonyl)nicotinamide]
[1]; [3]
  pEC50: 8.4
[1]; [4]
  Emax: 142%
[2]; [4]
  Emax: 104%
[2]; [5]
  EC50: 10 nM

## CCCS(=O)(=O)NC(=O)c1cnc(N2C[C@@H]3C[C@H]2C[C@H]3OCc2c(-c3c(Cl)cccc3Cl)noc2C2CC2)c(F)c1 [Compound I-206, 6-((1S,4S,5R)-5-((5-cyclopropyl-3-(2,6-dichlorophenyl)isoxazol-4-yl)methoxy)-2-azabicyclo[2.2.1]heptan-2-yl)-5-fluoro-N-(propylsulfonyl)nicotinamide]
[1]; [3]
  pEC50: 8.4
[1]; [4]
  Emax: 159%
[2]; [4]
  Emax: 104%
[2]; [5]
  EC50: 1.58 nM

## O=C(NS(=O)(=O)C1CC1)c1cnc(N2C[C@@H]3C[C@H]2C[C@H]3OCc2c(-c3c(Cl)cccc3Cl)noc2C2CC2)c(F)c1 [Compound I-207, 6-((1S,4S,5R)-5-((5-cyclopropyl-3-(2,6-dichlorophenyl)isoxazol-4-yl)methoxy)-2-azabicyclo[2.2.1]heptan-2-yl)-N-(cyclopropylsulfonyl)-5-fluoronicotinamide]
[1]; [3]
  pEC50: 8.6
[1]; [4]
  Emax: 152%
[2]; [4]
  Emax: 104%
[2]; [5]
  EC50: 3.98 nM

## CCCS(=O)(=O)NC(=O)c1ccc(N2C[C@@H]3C[C@H]2C[C@H]3OCc2c(-c3c(Cl)cccc3Cl)noc2C2(F)CC2)nc1 [Compound I-208, 6-[(1S,4S,5R)-5-[[3-(2,6-dichlorophenyl)-5-(1 I-fluorocyclopropyl)-1,2-oxazol-4-yl]methoxy]-2-azabicyclo[2.2.1]heptan-2-yl]-N-(propane-1-sulfonyl)pyridine-3-carboxamide]
[1]; [3]
  EC50: 10 nM
[1]; [4]
  Emax: 166%
[2]; [4]
  Emax: 104%
[2]; [5]
  EC50: 5.01 nM

## O=C(NS(=O)(=O)C1CC1)c1ccc(N2C[C@@H]3C[C@H]2C[C@H]3OCc2c(-c3c(Cl)cccc3Cl)noc2C2(F)CC2)nc1 [Compound I-209, N-(cyclopropanesulfonyl)-6-[(1S,4S,5R)-5-{[3-(2,6-dichlorophenyl)-5-(1-fluorocyclopropyl)-1,2-oxazol-4-yl]methoxy}-2-azabicyclo[2.2.1]heptan-2-yl]pyridine-3-carboxamide]
[1]; [3]
  pEC50: 7.8
[1]; [4]
  Emax: 160%
[2]; [4]
  Emax: 104%
[2]; [5]
  EC50: 15.8 nM

## O=C(NS(=O)(=O)CCO)c1ccc(N2C[C@@H]3C[C@H]2C[C@H]3OCc2c(-c3c(Cl)cccc3Cl)noc2C2CC2)cc1 [Compound I-210, 4-[(1S,4S,5R)-5-{[5-cyclopropyl-3-(2,6-dichlorophenyl)-1,2-oxazol-4-yl]methoxy}-2-azabicyclo[2.2.1]heptan-2-yl]-N-(2-hydroxyethanesulfonyl)benzamide]
[1]; [3]
  pEC50: 8.6
[1]; [4]
  Emax: 148%
[2]; [5]
  EC50: < 31.6 nM

## CC(=O)OCCS(=O)(=O)NC(=O)c1ccc(N2C[C@@H]3C[C@H]2C[C@H]3OCc2c(-c3c(Cl)cccc3Cl)noc2C2CC2)cc1 [Compound I-211, 2-[({4-[(1S,4S,5R)-5-{[5-cyclopropyl-3-(2,6-dichlorophenyl)-1,2-oxazol-4-yl]methoxy}-2-azabicyclo[2.2.1]heptan-2-yl]phenyl}formamido)sulfonyl]ethyl Acetate]
[1]; [3]
  pEC50: 8.4
[1]; [4]
  Emax: 152%
[2]; [4]
  Emax: 105%
[2]; [5]
  EC50: 1 nM

## O=C(NS(=O)(=O)CCOC(=O)C1CC1)c1ccc(N2C[C@@H]3C[C@H]2C[C@H]3OCc2c(-c3c(Cl)cccc3Cl)noc2C2CC2)cc1 [Compound I-212, 2-[({4-[(1S,4S,5R)-5-{[5-cyclopropyl-3-(2,6-dichlorophenyl)-1,2-oxazol-4-yl]methoxy}-2-azabicyclo[2.2.1]heptan-2-yl]phenyl}formamido)sulfonyl]ethyl Cyclopropanecarboxylate]
[1]; [3]
  pEC50: 9.2
[1]; [4]
  Emax: 136%
[2]; [4]
  Emax: 107%
[2]; [5]
  EC50: 2.51 nM

## CC(C)C(=O)OCCS(=O)(=O)NC(=O)c1ccc(N2C[C@@H]3C[C@H]2C[C@H]3OCc2c(-c3c(Cl)cccc3Cl)noc2C2CC2)cc1 [Compound I-213, 2-[({4-[(1S,4S,5R)-5-{[5-cyclopropyl-3-(2,6-dichlorophenyl)-1,2-oxazol-4-yl]methoxy}-2-azabicyclo[2.2.1]heptan-2-yl]phenyl}formamido)sulfonyl]ethyl 2-methylpropanoate]
[1]; [3]
  pEC50: 9.4
[1]; [4]
  Emax: 131%
[2]; [5]
  EC50: < 31.6 nM
